Results as given in patent US7238697B2, “Pyridylpyrimidines for use as pesticides” (Bayer CropScience AG, priority 2001, dated 2007).

assay: log P determination by HPLC (reversed-phase C18), EEC Directive 79/831 Annex V.A8; type: physicochemical; conditions: reversed-phase C18 HPLC column; pH 2.3; HPLC, reversed-phase C 18, 43° C., 0.1% aqueous phosphoric acid/acetonitrile; read-out: log P (pH 2.3)

chromatographic logP | SMILES
2.64 | CCOC(=O)C1CC1COC(=O)CSc1nccc(-c2ccccn2)n1 (stereo not shown) [Example 199]
2.21 | COC(=O)CCCOC(=O)CSc1nccc(-c2ccccn2)n1 [Example 200]
1.02 | Cn1ccnc1COC(=O)CSc1nccc(-c2ccccn2)n1 [Example 201]
2.78 | CSC(C)COC(=O)CSc1nccc(-c2ccccn2)n1 (stereo not shown) [Example 203]
1.2 | O=C(CSc1nccc(-c2ccccn2)n1)OCCc1ccncc1 [Example 204]
3.81 | CC(C)(C)C(Cl)COC(=O)CSc1nccc(-c2ccccn2)n1 (stereo not shown) [Example 205]
1.64 | O=C(CSc1nccc(-c2ccccn2)n1)OCC1CCC(=O)O1 (stereo not shown) [Example 206]
2.61 | O=C(CSc1nccc(-c2ccccn2)n1)OCC#CCCl [Example 207]
1.32 | O=C(CSc1nccc(-c2ccccn2)n1)OCCn1cncn1 [Example 209]
1.42 | O=C(CSc1nccc(-c2ccccn2)n1)OCCn1ccnn1 [Example 210]
2.75 | CC(C)(C)C1(COC(=O)CSc2nccc(-c3ccccn3)n2)COC1 [Example 211]
2.13 | CO/N=C/C(C)OC(=O)CSc1nccc(-c2ccccn2)n1 (stereo not shown) [Example 212]
1.42 | CNC(=O)NCCCOC(=O)CSc1nccc(-c2ccccn2)n1 [Example 213]
2.13 | C/C=N/OCCOC(=O)CSc1nccc(-c2ccccn2)n1 [Example 214]
3.48 | CC(C=C(Cl)Cl)OC(=O)CSc1nccc(-c2ccccn2)n1 (stereo not shown) [Example 215]
2.04 | CCC(=O)NCCCOC(=O)CSc1nccc(-c2ccccn2)n1 [Example 216]
1.4 | CN(C=O)CCOC(=O)CSc1nccc(-c2ccccn2)n1 [Example 217]
1.12 | CN1CCC(COC(=O)CSc2nccc(-c3ccccn3)n2)O1 (stereo not shown) [Example 220]
3 | O=C(CSc1nccc(-c2ccccn2)n1)OC1CC(F)(F)C1(F)F (stereo not shown) [Example 221]
2.51 | CCC1(COC(=O)CSc2nccc(-c3ccccn3)n2)COCOC1 [Example 222]
2.49 | C=CC(=O)OCCCOC(=O)CSc1nccc(-c2ccccn2)n1 [Example 224]
1.96 | COCN(C)C(=O)COC(=O)CSc1nccc(-c2ccccn2)n1 [Example 230]
1.97 | CCNC(=O)COC(=O)CSc1nccc(-c2ccccn2)n1 [Example 231]

chromatographic logP | SMILES
1.97 | CON(C)C(=O)COC(=O)CSc1nccc(-c2ccccn2)n1 [Example 234]
2.7 | O=C(CSc1nccc(-c2ccccn2)n1)OCCOCC(F)(F)F [Example 236]
3.2 | CCOC(=O)C(OC(=O)CSc1nccc(-c2ccccn2)n1)C(C)C (stereo not shown) [Example 243]
2.19 | CC(C)NC(=O)OCCOC(=O)CSc1nccc(-c2ccccn2)n1 [Example 245]
2.54 | CC(=O)OC(C)C(C)OC(=O)CSc1nccc(-c2ccccn2)n1 (stereo not shown) [Example 246]
2.65 | CC(=O)O[C@H]1CCC[C@H]1OC(=O)CSc1nccc(-c2ccccn2)n1 [Example 248]
1.69 | O=C(CSc1nccc(-c2ccccn2)n1)OC1COC1 [Example 249]
1.97 | O=C(CSc1nccc(-c2ccccn2)n1)OCCc1noc(=O)[nH]1 [Example 250]
2.25 | Cc1noc(C)c1CCOC(=O)CSc1nccc(-c2ccccn2)n1 [Example 252]
3.19 | O=C(CSc1nccc(-c2ccccn2)n1)OCC(F)=C(Cl)Cl [Example 253]
2.98 | CCOC(=O)CSc1nccc(-c2ccc(CC)cn2)n1 [Example 254]
3.23 | CCOC(=O)CSc1nccc(-c2ccc(Cl)cn2)n1 [Example 256]
3.48 | CCOC(=O)CSc1nccc(-c2ccc(C(F)(F)F)cn2)n1 [Example 257]
2.69 | CCOC(=O)CSc1nccc(-c2cc(CC)ccn2)n1 [Example 259]
1.62 | CCOC(=O)CSc1nccc(-c2cc(OC)ccn2)n1 [Example 261]
3.54 | CCOC(=O)CSc1nccc(-c2cc(-c3ccccc3)ccn2)n1 [Example 262]
1.85 | CCOC(=O)CSc1nccc(-c2ncccc2C)n1 [Example 265]
2.22 | CCOC(=O)CSc1nccc(-c2ncccc2CC)n1 [Example 266]
1.34 | CCOC(=O)CSc1nccc(-c2ncccc2OC)n1 [Example 268]
2.53 | CCOC(=O)CSc1nccc(-c2ncccc2C(F)(F)F)n1 [Example 269]
2.18 | CCOC(=O)CSc1ncc(C)c(-c2ccccn2)n1 [Example 271]
2.04 | CCOC(=O)CSc1nccc(-c2ncccc2F)n1 [Example 281]
3.49 | CCOC(=O)CSc1nccc(-c2ccc3ccccc3n2)n1 [Example 296]

chromatographic logP | SMILES
2.51 | CCOC(=O)CSc1nccc(-c2nccc3ccccc23)n1 [Example 298]
1.17 | c1ccc(-c2ccnc(SCc3nn[nH]n3)n2)nc1 [Example 299]
1.59 | Cn1nnc(CSc2nccc(-c3ccccn3)n2)n1 [Example 300]
1.24 | Cn1nnnc1CSc1nccc(-c2ccccn2)n1 [Example 301]
2.69 | CC(C)(C)n1nnc(CSc2nccc(-c3ccccn3)n2)n1 [Example 302]
2.57 | CC1(CCCOC(=O)CSc2nccc(-c3ccccn3)n2)OCCO1 [Example 303]
5.37 | CCOC(=O)c1cc(NC(=O)NCCCOC(=O)CSc2nccc(-c3ccccn3)n2)ccc1Cl [Example 304]
3.39 | CCOC(=O)CSc1nccc(-c2ccc(Br)cn2)n1 [Example 305]
2.77 | CCOC(=O)CSc1nccc(-c2ccc([N+](=O)[O-])cn2)n1 [Example 306]
3.31 | CCOC(=O)CSc1nccc(-c2cccc(Br)n2)n1 [Example 307]
2.25 | O=C(CSc1nccc(-c2ccccn2)n1)Nc1cccc([N+](=O)[O-])c1 [Example 308]
2.16 | COC(=O)c1ccc(NC(=O)CSc2nccc(-c3ccccn3)n2)cc1 [Example 309]
1.93 | CCOC(=O)C(C)N(C)C(=O)CSc1nccc(-c2ccccn2)n1 (stereo not shown) [Example 310]
3.39 | CCOC(=O)/C=C(/CSc1nccc(-c2ccccn2)n1)OCC [Example 311]
3.61 | CC(C)(C)SC(=O)CSc1nccc(-c2ccccn2)n1 [Example 312]
2.28 | Cc1c(NC(=O)CSc2nccc(-c3ccccn3)n2)cccc1[N+](=O)[O-] [Example 313]
0.96 | NC(=O)CCSc1nccc(-c2ccccn2)n1 [Example 314]
2.13 | CCOC(=O)CN(CC)c1nccc(-c2ccccn2)n1 [Example 315]
3.55 | CCOC(=O)CSc1nccc(-c2cc(C(C)(C)C)ccn2)n1 [Example 316]
1.68 | CCOC(=O)CSc1nccc(-c2ccc(SC)cn2)n1 [Example 317]
1.68 | N#CCSc1nccc(-c2ccccn2)n1 [{[4-(2-pyridinyl)-2-pyrimidinyl]thio}acetonitrile]
